Data from patent US20230406885A1, “CYCLIC PEPTIDES FOR TRAPPING INTERLEUKIN-1 BETA” (MERCK SHARP & DOHME LLC, priority 2022, published 2023).
*1 amine or outer side, *2 acyl side, *3 side chain or, on linkers, in order; H or OH if unused. Where a SMILES comes first, the peptide text is derived from it. [ ]: non-standard residue; d: D form. Trp(4-Cl)(βS-Me) = C[C@@H](c1c[nH]c2cccc(Cl)c12)[C@H](N)C(=O)O; Trp(βS-Me,4-F) = C[C@@H](c1c[nH]c2cccc(F)c12)[C@H](N)C(=O)O; Bip(4'-COOH) = N[C@@H](Cc1ccc(-c2ccc(C(=O)O)cc2)cc1)C(=O)O; X2 = O=C(O)c1ccc(-c2ccc(C[C@H](N[*:1])C(=O)[*:2])cn2)cc1; X1 = CC(=O)N1CCN(c2ccc(C[C@H](N[*:1])C(=O)[*:2])cn2)CC1; 1Nal(3S-Me) = C[C@@H](c1cccc2ccccc12)[C@H](N)C(=O)O; hPhe(4-CF3) = N[C@@H](CCc1ccc(C(F)(F)F)cc1)C(=O)O; Phe(4-COOH) = N[C@@H](Cc1ccc(C(=O)O)cc1)C(=O)O; h3Pal(5-CN) = N#Cc1cncc(CC[C@H](N)C(=O)O)c1; Phe(3-NH2) = Nc1cccc(C[C@H](N)C(=O)O)c1; Pro(4R-NH2) = N[C@H]1CN[C@H](C(=O)O)C1; AEF = NCCOc1ccc(C[C@H](N)C(=O)O)cc1; hTyr = N[C@@H](CCc1ccc(O)cc1)C(=O)O; 4Pal = N[C@@H](Cc1ccncc1)C(=O)O; dNle = CCCC[C@@H](N)C(=O)O; dOrn = NCCC[C@@H](N)C(=O)O; dNMeA = CN[C@H](C)C(=O)O; Dab = NCC[C@H](N)C(=O)O; Nva = CCC[C@H](N)C(=O)O; Dap = NC[C@H](N)C(=O)O

Each compound was assayed against T1, Recombinant human IL-1β (Homo sapiens, UniProt P01584) (assay: IL-6 assay in MRC5 cells: inhibition of IL-1β induced IL-6 secretion (AlphaLISA)). Conditions: inhibition of IL-1β induced IL-6 secretion in MRC5 cells; IL-1β pre-incubated 1 hour with compound; read-out: MRC5 IC50.
T1 construct: purchased BioLegend 579404
Format: cell-based
In short: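 IL-1β at 2×EC80 in seeding medium (EMEM, 0.025% BSA) preincubated 1 h at ambient temperature with compound, then 3000 MRC5 cells/well added and incubated overnight at 37 °C, 5% CO2. IL-6 in conditioned medium quantified by AlphaLISA; IC50 from 4-parameter logistic fit.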

T1 sequence (P01584 117-269): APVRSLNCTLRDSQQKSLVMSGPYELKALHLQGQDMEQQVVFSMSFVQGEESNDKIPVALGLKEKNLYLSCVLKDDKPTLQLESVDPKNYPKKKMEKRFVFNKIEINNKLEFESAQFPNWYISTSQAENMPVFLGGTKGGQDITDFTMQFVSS

Question: For `CC(=O)NCCOc1ccc(C[C@@H]2NC(=O)[C@H](CCc3ccc(O)cc3)NC(=O)[C@@H](C)NC(=O)[C@H](CCN)NC(=O)[C@H](Cc3ccncc3)NC(=O)[C@H](Cc3ccc(-c4ccc(C(=O)O)cc4)cc3)NC(=O)CNC(=O)[C@@H](C)N(C)C(=O)[C@H](CC(=O)O)NC(=O)[C@H]([C@@H](C)c3cccc4ccccc34)NC(=O)[C@@H]3C[C@@H](N)CN3C(=O)CNC(=O)[C@H](Cc3ccc(C(=O)O)cc3)NC(=O)[C@H](Cc3c[nH]c4ccccc34)NC2=O)cc1` [Example 101] (cyclo([AEF](Ac)W[Phe(4-COOH)]G[Pro(4R-NH2)][1Nal(3S-Me)]D[dNMeA]G[Bip(4'-COOH)][4Pal][Dab][dA][hTyr])), which IC50 is on record?
Answer: Its IC50 is 0.247 nM.

Question: For `C[C@@H]1C(=O)NCC(=O)N[C@@H](Cc2ccc(-c3ccc(C(=O)O)cc3)cc2)C(=O)N[C@@H](Cc2cccc(N)c2)C(=O)N[C@@H](CO)C(=O)N[C@H](C)C(=O)N[C@@H](CCc2ccc(O)cc2)C(=O)N[C@@H](Cc2ccc(-c3ccc(C(=O)O)cc3)cc2)C(=O)N[C@@H](Cc2c[nH]c3ccccc23)C(=O)N[C@@H](Cc2ccc(C(=O)O)cc2)C(=O)NCC(=O)N2C[C@H](N)C[C@H]2C(=O)N[C@@H]([C@@H](C)c2c[nH]c3cccc(Cl)c23)C(=O)N[C@@H](CC(=O)O)C(=O)N1C` [Example 50] (cyclo([Bip(4'-COOH)]W[Phe(4-COOH)]G[Pro(4R-NH2)][Trp(4-Cl)(βS-Me)]D[dNMeA]G[Bip(4'-COOH)][Phe(3-NH2)]S[dA][hTyr])), which IC50 is on record?
Answer: The IC50 was 0.52 nM.

Question: For `CCC[C@@H]1NC(=O)[C@H](Cc2c[nH]c3ccccc23)NC(=O)[C@H](Cc2ccc(-c3ccc(C(=O)O)cc3)cc2)NC(=O)CNC(=O)[C@@H](C)N(C)C(=O)[C@H](CC(=O)O)NC(=O)[C@H]([C@@H](C)c2c[nH]c3cccc(F)c23)NC(=O)[C@@H]2C[C@@H](N)CN2C(=O)CNC(=O)[C@H](Cc2ccc(C(=O)O)cc2)NC(=O)[C@H](Cc2c[nH]c3ccccc23)NC(=O)[C@H](Cc2ccc(-c3ccc(C(=O)O)cc3)cc2)NC(=O)[C@H](C)NC(=O)[C@@H](C)NC1=O` [Example 79] (cyclo([Bip(4'-COOH)]W[Phe(4-COOH)]G[Pro(4R-NH2)][Trp(βS-Me,4-F)]D[dNMeA]G[Bip(4'-COOH)]W[Nva][dA]A)), which IC50 is on record?
Answer: The IC50 was 0.189 nM.

Question: For `CC(C)C[C@@H]1NC(=O)[C@H](Cc2c[nH]c3ccccc23)NC(=O)[C@H](Cc2ccc(-c3ccc(C(=O)O)cc3)cc2)NC(=O)CNC(=O)[C@@H](C)N(C)C(=O)[C@H](CC(=O)O)NC(=O)[C@H]([C@@H](C)c2c[nH]c3cccc(F)c23)NC(=O)[C@@H]2C[C@@H](N)CN2C(=O)CNC(=O)[C@H](Cc2ccc(C(=O)O)cc2)NC(=O)[C@H](Cc2c[nH]c3ccccc23)NC(=O)[C@H](Cc2ccc(-c3ccc(C(=O)O)cc3)cc2)NC(=O)[C@H](CCc2ccc(O)cc2)NC(=O)[C@@H](C)NC1=O` [Example 78] (cyclo([Bip(4'-COOH)]W[Phe(4-COOH)]G[Pro(4R-NH2)][Trp(βS-Me,4-F)]D[dNMeA]G[Bip(4'-COOH)]WL[dA][hTyr])), which IC50 is on record?
Answer: The IC50 was 0.0732 nM.

Question: Which IC50 does the source give for `C[C@@H]1C(=O)NCC(=O)N[C@@H](Cc2ccc(-c3ccc(C(=O)O)cc3)nc2)C(=O)N[C@@H](Cc2c[nH]c3ccccc23)C(=O)N[C@@H](CN)C(=O)N[C@H](C)C(=O)N[C@@H](CCc2ccc(O)cc2)C(=O)N[C@@H](Cc2ccc(-c3ccc(C(=O)O)cc3)nc2)C(=O)N[C@@H](Cc2c[nH]c3ccccc23)C(=O)N[C@@H](Cc2ccc(C(=O)O)cc2)C(=O)NCC(=O)N2C[C@H](N)C[C@H]2C(=O)N[C@@H]([C@@H](C)c2cccc3ccccc23)C(=O)N[C@@H](CC(=O)O)C(=O)N1C` [Example 10] (cyclo([X2]W[Phe(4-COOH)]G[Pro(4R-NH2)][1Nal(3S-Me)]D[dNMeA]G[X2]W[Dap][dA][hTyr])) here?
Answer: Its IC50 is 0.256 nM.

Question: With `CC(=O)NCCOc1ccc(C[C@@H]2NC(=O)[C@H](CCc3ccc(C(F)(F)F)cc3)NC(=O)[C@@H](C)NC(=O)[C@H](CO)NC(=O)[C@H](Cc3ccncc3)NC(=O)[C@H](Cc3ccc(-c4ccc(C(=O)O)cc4)cc3)NC(=O)CNC(=O)[C@@H](C)N(C)C(=O)[C@H](CC(=O)O)NC(=O)[C@H]([C@@H](C)c3cccc4ccccc34)NC(=O)[C@@H]3C[C@@H](N)CN3C(=O)CNC(=O)[C@H](Cc3ccc(C(=O)O)cc3)NC(=O)[C@H](Cc3c[nH]c4ccccc34)NC2=O)cc1` [Example 105] (cyclo([AEF](Ac)W[Phe(4-COOH)]G[Pro(4R-NH2)][1Nal(3S-Me)]D[dNMeA]G[Bip(4'-COOH)][4Pal]S[dA][hPhe(4-CF3)])) as the compound, how does the IC50 read?
Answer: The IC50 was 0.091 nM.

Question: For `CC(C)C[C@@H]1NC(=O)[C@H](Cc2ccccc2)NC(=O)[C@H](Cc2ccc(-c3ccc(C(=O)O)cc3)cc2)NC(=O)CNC(=O)[C@@H](C)N(C)C(=O)[C@H](CC(=O)O)NC(=O)[C@H]([C@@H](C)c2c[nH]c3cccc(F)c23)NC(=O)[C@@H]2C[C@@H](N)CN2C(=O)CNC(=O)[C@H](Cc2ccc(C(=O)O)cc2)NC(=O)[C@H](Cc2c[nH]c3ccccc23)NC(=O)[C@H](Cc2ccc(-c3ccc(C(=O)O)cc3)cc2)NC(=O)[C@H](CCc2ccc(O)cc2)NC(=O)[C@@H](C)NC1=O` [Example 60] (cyclo([Bip(4'-COOH)]W[Phe(4-COOH)]G[Pro(4R-NH2)][Trp(βS-Me,4-F)]D[dNMeA]G[Bip(4'-COOH)]FL[dA][hTyr])), which IC50 is on record?
Answer: Its IC50 is 0.0689 nM.

Same assay, conditions: inhibition of IL-1β induced IL-6 secretion in MRC5 cells; read-out: MRC5 IC50

Question: For `CC(=O)NCCOc1ccc(C[C@@H]2NC(=O)[C@H](CCc3ccc(O)cc3)NC(=O)[C@@H](CCCN)NC(=O)[C@H](CC(C)C)NC(=O)[C@H](Cc3c[nH]c4ccccc34)NC(=O)[C@H](Cc3ccc(-c4ccc(C(=O)O)cc4)cc3)NC(=O)CNC(=O)[C@@H](C)N(C)C(=O)[C@H](CC(=O)O)NC(=O)[C@H]([C@@H](C)c3c[nH]c4cccc(F)c34)NC(=O)[C@@H]3C[C@@H](N)CN3C(=O)CNC(=O)[C@H](Cc3ccc(C(=O)O)cc3)NC(=O)[C@H](Cc3c[nH]c4ccccc34)NC2=O)cc1` [Example 170] (cyclo([AEF](Ac)W[Phe(4-COOH)]G[Pro(4R-NH2)][Trp(βS-Me,4-F)]D[dNMeA]G[Bip(4'-COOH)]WL[dOrn][hTyr])), which IC50 is on record?
Answer: Its IC50 is 0.0966 nM.

Question: How did the IC50 turn out when `CC(=O)NCCOc1ccc(C[C@@H]2NC(=O)[C@H](CCc3ccc(O)cc3)NC(=O)[C@@H](C)NC(=O)[C@H](CC(C)C)NC(=O)[C@H](Cc3c[nH]c4ccccc34)NC(=O)[C@H](Cc3ccc(-c4ccc(C(=O)O)cc4)cc3)NC(=O)CNC(=O)[C@@H](C)N(C)C(=O)[C@H](CC(=O)O)NC(=O)[C@H]([C@@H](C)c3c[nH]c4cccc(F)c34)NC(=O)[C@@H]3C[C@@H](N)CN3C(=O)CNC(=O)[C@H](Cc3ccc(C(=O)O)cc3)NC(=O)[C@H](Cc3c[nH]c4ccccc34)NC2=O)cc1` [Example 167] (cyclo([AEF](Ac)W[Phe(4-COOH)]G[Pro(4R-NH2)][Trp(βS-Me,4-F)]D[dNMeA]G[Bip(4'-COOH)]WL[dA][hTyr])) was run?
Answer: The IC50 was 0.136 nM.

Question: `CCCC[C@H]1NC(=O)[C@H](CC(C)C)NC(=O)[C@H](CCCCN)NC(=O)[C@H](Cc2ccc(-c3ccc(C(=O)O)cc3)cc2)NC(=O)CNC(=O)[C@@H](C)N(C)C(=O)[C@H](CC(=O)O)NC(=O)[C@H]([C@@H](C)c2cccc3ccccc23)NC(=O)[C@@H]2C[C@@H](N)CN2C(=O)CNC(=O)[C@H](Cc2ccc(C(=O)O)cc2)NC(=O)[C@H](Cc2c[nH]c3ccccc23)NC(=O)[C@H](Cc2ccc(N3CCN(C(C)=O)CC3)nc2)NC(=O)[C@H](CCc2cncc(C#N)c2)NC1=O` [Example 179] (cyclo([X1]W[Phe(4-COOH)]G[Pro(4R-NH2)][1Nal(3S-Me)]D[dNMeA]G[Bip(4'-COOH)]KL[dNle][h3Pal(5-CN)])) was tested. Which IC50 did it give?
Answer: The IC50 was 0.017 nM.
